# Assay results reported in patent US20100104614A1, “PROVIDONE COMPOSITIONS FOR WOUND HEALING” (priority 2008, published 2010).
# Experiment: Treatment of non-healing dog bite wounds in a patient (Example 1)
# Assay type: in vivo, human
# Conditions: course of antibiotics (a cephalosporin and flagyl) and daily dressing changes; after five weeks
# Procedure: A patient presented with six non-healing dog bite wounds, one on their forearm, and the rest on their lower extremeties. Their wounds were treated with a course of antibiotics (a cephalosporin and flagyl) and daily dressing changes. […] Further treatment with hyperbaric oxygen was being contemplated.
# Approximately one tablespoon of povidone powder was sprinkled over the patient's wounds. Within four days, wounds had completely healed.
structure (smiles),measurement,value
Cc1ncc([N+](=O)[O-])n1CCO [flagyl],wound healing outcome of prior treatment,remained unhealed
